Data reported in patent publication US9708314B2, “Heterocyclic amide compound” (NISSAN CHEMICAL INDUSTRIES, LTD., priority 2013, dated 2017).

Assays:
Format in all cases: in vivo
[1] = test system: Abutilon theophrasti; experiment: Test Example 4: herbicidal effect by application to foliage (diluvial soil, plastic box); conditions: for M: Application herbicide amount 320 g/ha
How it was run: (§1)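 Seeds sown in sterilized diluvial soil, covered ~1.5 cm, grown 14 days in greenhouse at 25° C. to 30° C. Emulsion formulation diluted in water to set rate (g/ha) and sprayed onto stems and leaves. Effect scored visually 3 weeks later on 0–5 scale (5 = ≥90% herbicidal ratio, 0 = ≤5%).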

[2] = test system: Apera spica-venti.; experiment: as above; conditions: for L: Application herbicide amount 320 g/ha
How it was run: as §1

[3] = test system: Echinochloa crus-galli var. crus-galli; experiment: as above; conditions: for H: Application herbicide amount 320 g/ha
How it was run: as §1

[4] = test system: Alopecurus myosuroides; experiment: as above; conditions: for J: Application herbicide amount 320 g/ha
How it was run: as §1

[5] = test system: Setaria viridis; experiment: as above; conditions: for G: Application herbicide amount 320 g/ha
How it was run: as §1

[6] = test system: Chenopodium album; experiment: as above; conditions: for O: Application herbicide amount 320 g/ha
How it was run: as §1

[7] = test system: Lolium multiflorum Lam.; experiment: as above; conditions: for K: Application herbicide amount 320 g/ha
How it was run: as §1

[8] = test system: Avena fatua; experiment: as above; conditions: for I: Application herbicide amount 320 g/ha
How it was run: as §1

[9] = test system: Veronica persica; experiment: as above; conditions: for R: Application herbicide amount 320 g/ha
How it was run: as §1

[10] = test system: Echinochloa oryzacola Vasing.; experiment: Test Example 2: herbicidal activity, application during weed generation in submerged conditions; conditions: Eighteenth Table
How it was run: (§2)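 Scored three weeks post-application on a 0–5 scale (5: ≥90% herbicidal ratio, almost withered; 0: ≤5%). Plants raised from mixed-sown seed in submerged alluvial soil (4 cm water), 25–30 °C greenhouse; water-diluted emulsion applied onto water surface at one- to two-leaf stage, dose in g/ha.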

[11] = test system: Monochoria vaginalis; experiment: as above; conditions: Eighteenth Table
How it was run: as §2

[12] = test system: Scirpus juncoides; experiment: as above; conditions: Eighteenth Table
How it was run: as §2

[13] = test system: Triticum aestivum; experiment: Test Example 4: effect on crop by application to foliage (diluvial soil, plastic box); conditions: for e: Application herbicide amount 320 g/ha, effect on crop
How it was run: as §1

[14] = test system: Brassica campestris L.; experiment: as above; conditions: for g: Application herbicide amount 320 g/ha, effect on crop
How it was run: as §1

[15] = test system: Beta vulgaris ssp. vulgaris; experiment: as above; conditions: for f: Application herbicide amount 320 g/ha, effect on crop
How it was run: as §1

[16] = test system: Zea mays; experiment: as above; conditions: for b: Application herbicide amount 320 g/ha, effect on crop
How it was run: as §1

[17] = test system: directly sowed Oryza sativa; experiment: as above; conditions: for d: Application herbicide amount 320 g/ha, effect on crop
How it was run: as §1

[18] = test system: Glycine max; experiment: as above; conditions: for c: Application herbicide amount 320 g/ha, effect on crop
How it was run: as §1

[19] = application to foliage, application herbicide amount 320 g/ha
[20] = application herbicide amount 320 g/ha
[21] = application to foliage, 141 g/ha
[22] = application herbicide amount 141 g/ha

Row | Structure (SMILES) | A (Echinochloa oryzicola Vasing.) herbicidal ratio grade [10, 20] | C (Monochoria vaginalis) herbicidal ratio grade [11, 20] | B (Scirpus juncoides) herbicidal ratio grade [12, 20] | L [2] | H [3] | J [4] | G [5] | O [6] | K [7] | I [8] | R [9] | e [13] | g [14] | f [15] | b [16] | d [17] | c [18] | M [1] | other results
1 | Cc1nnc(NC(=O)c2ccc(C(F)(F)F)n3cnnc23)o1 [1-001] | 4 (Herbicidal ratio of 70% or more and less than 90%) | 2 (Herbicidal ratio of 20% or more and less than 40%) | 4 (Herbicidal ratio of 70% or more and less than 90%) |  |  |  |  |  |  |  |  |  |  |  |  |  |  |  | M (Abutilon theophrasti) herbicidal effect [1, 19]: 3 (Herbicidal ratio of 40% or more and less than 70%); L (Apera spica-venti.) herbicidal effect [2, 19]: 1 (Herbicidal ratio of 5% or more and less than 20%); H (Echinochloa crus-galli var. crus-galli) herbicidal effect [3, 19]: 4 (Herbicidal ratio of 70% or more and less than 90%); J (Alopecurus myosuroides) herbicidal effect [4, 19]: 1 (Herbicidal ratio of 5% or more and less than 20%); G (Setaria viridis) herbicidal effect [5, 19]: 3 (Herbicidal ratio of 40% or more and less than 70%); O (Chenopodium album) herbicidal effect [6, 19]: 5 (Herbicidal ratio of 90% or more (almost completely withered)); K (Lolium multiflorum Lam.) herbicidal effect [7, 19]: 1 (Herbicidal ratio of 5% or more and less than 20%); I (Avena fatua) herbicidal effect [8, 19]: 1 (Herbicidal ratio of 5% or more and less than 20%); R (Veronica persica) herbicidal effect [9, 19]: 4 (Herbicidal ratio of 70% or more and less than 90%); e (Triticum aestivum) effect on crop [13, 19]: 1 (Herbicidal ratio of 5% or more and less than 20%); g (Brassica campestris L.) effect on crop [14, 19]: 4 (Herbicidal ratio of 70% or more and less than 90%); f (Beta vulgaris ssp. vulgaris) effect on crop [15, 19]: 4 (Herbicidal ratio of 70% or more and less than 90%); b (Zea mays) effect on crop [16, 19]: 0 (Herbicidal ratio of 5% or less (almost no effect)); d (directly sowed Oryza sativa) effect on crop [17, 19]: 3 (Herbicidal ratio of 40% or more and less than 70%); c (Glycine max) effect on crop [18, 19]: 0 (Herbicidal ratio of 5% or less (almost no effect))
2 | C=CC[S+]([O-])c1nnc2c(C(=O)Nc3nnc(C)o3)ccc(C(F)(F)F)n12 (centres unmarked) [1-074] | 2 (Herbicidal ratio of 20% or more and less than 40%) | 0 (Herbicidal ratio of 5% or less (almost no effect)) | 0 (Herbicidal ratio of 5% or less (almost no effect)) | 0 (Herbicidal ratio of 5% or less (almost no effect)) | 5 (Herbicidal ratio of 90% or more (almost completely withered)) | 0 (Herbicidal ratio of 5% or less (almost no effect)) | 4 (Herbicidal ratio of 70% or more and less than 90%) | 5 (Herbicidal ratio of 90% or more (almost completely withered)) | 0 (Herbicidal ratio of 5% or less (almost no effect)) | 1 (Herbicidal ratio of 5% or more and less than 20%) | 3 (Herbicidal ratio of 40% or more and less than 70%) | 0 (Herbicidal ratio of 5% or less (almost no effect)) | 3 (Herbicidal ratio of 40% or more and less than 70%) | 4 (Herbicidal ratio of 70% or more and less than 90%) | 0 (Herbicidal ratio of 5% or less (almost no effect)) | 3 (Herbicidal ratio of 40% or more and less than 70%) | 0 (Herbicidal ratio of 5% or less (almost no effect)) |  | 
3 | Cc1nnc(NC(=O)c2ccc(C(F)(F)F)n3c(C(C)S(C)(=O)=O)nnc23)o1 (centres unmarked) [1-080] | 5 (Herbicidal ratio of 90% or more (almost completely withered)) | 4 (Herbicidal ratio of 70% or more and less than 90%) | 3 (Herbicidal ratio of 40% or more and less than 70%) | 5 (Herbicidal ratio of 90% or more (almost completely withered)) | 5 (Herbicidal ratio of 90% or more (almost completely withered)) | 5 (Herbicidal ratio of 90% or more (almost completely withered)) | 5 (Herbicidal ratio of 90% or more (almost completely withered)) | 5 (Herbicidal ratio of 90% or more (almost completely withered)) | 4 (Herbicidal ratio of 70% or more and less than 90%) | 4 (Herbicidal ratio of 70% or more and less than 90%) |  | 5 (Herbicidal ratio of 90% or more (almost completely withered)) | 5 (Herbicidal ratio of 90% or more (almost completely withered)) | 5 (Herbicidal ratio of 90% or more (almost completely withered)) | 4 (Herbicidal ratio of 70% or more and less than 90%) | 5 (Herbicidal ratio of 90% or more (almost completely withered)) | 4 (Herbicidal ratio of 70% or more and less than 90%) | 5 (Herbicidal ratio of 90% or more (almost completely withered)) | 
4 | Cc1nnc(NC(=O)c2ccc(C(F)(F)F)n3c(CCS(C)(=O)=O)nnc23)o1 [1-085] | 3 (Herbicidal ratio of 40% or more and less than 70%) | 2 (Herbicidal ratio of 20% or more and less than 40%) | 2 (Herbicidal ratio of 20% or more and less than 40%) | 3 (Herbicidal ratio of 40% or more and less than 70%) | 5 (Herbicidal ratio of 90% or more (almost completely withered)) | 3 (Herbicidal ratio of 40% or more and less than 70%) | 5 (Herbicidal ratio of 90% or more (almost completely withered)) | 5 (Herbicidal ratio of 90% or more (almost completely withered)) | 3 (Herbicidal ratio of 40% or more and less than 70%) |  | 5 (Herbicidal ratio of 90% or more (almost completely withered)) | 3 (Herbicidal ratio of 40% or more and less than 70%) | 4 (Herbicidal ratio of 70% or more and less than 90%) | 4 (Herbicidal ratio of 70% or more and less than 90%) | 3 (Herbicidal ratio of 40% or more and less than 70%) | 4 (Herbicidal ratio of 70% or more and less than 90%) | 3 (Herbicidal ratio of 40% or more and less than 70%) | 5 (Herbicidal ratio of 90% or more (almost completely withered)) | 
5 | CCN(C)c1nnc2c(C(=O)Nc3nnnn3C)ccc(C(F)(F)F)n12 [2-088] |  |  |  |  |  |  |  |  |  |  |  |  |  |  |  |  |  |  | herbicidal effect, M (Abutilon theophrasti) [1, 21]: 5 (Herbicidal ratio of 90% or more (almost completely withered)); herbicidal effect, L (Apera spica-venti.) [2, 21]: 4 (Herbicidal ratio of 70% or more and less than 90%); herbicidal effect, H (Echinochloa crus-galli var. crus-galli) [3, 21]: 5 (Herbicidal ratio of 90% or more (almost completely withered)); herbicidal effect, J (Alopecurus myosuroides) [4, 21]: 3 (Herbicidal ratio of 40% or more and less than 70%); herbicidal effect, G (Setaria viridis) [5, 21]: 5 (Herbicidal ratio of 90% or more (almost completely withered)); herbicidal effect, O (Chenopodium album) [6, 21]: 5 (Herbicidal ratio of 90% or more (almost completely withered)); herbicidal effect, K (Lolium multiflorum Lam.) [7, 21]: 3 (Herbicidal ratio of 40% or more and less than 70%); herbicidal effect, I (Avena fatua) [8, 21]: 4 (Herbicidal ratio of 70% or more and less than 90%); herbicidal effect, R (Veronica persica) [9, 21]: 4 (Herbicidal ratio of 70% or more and less than 90%); A (Echinochloa oryzicola Vasing.) herbicidal ratio grade [10, 22]: 4 (Herbicidal ratio of 70% or more and less than 90%); C (Monochoria vaginalis) herbicidal ratio grade [11, 22]: 4 (Herbicidal ratio of 70% or more and less than 90%); B (Scirpus juncoides) herbicidal ratio grade [12, 22]: 3 (Herbicidal ratio of 40% or more and less than 70%); effect on crop, e (Triticum aestivum) [13, 21]: 0 (Herbicidal ratio of 5% or less (almost no effect)); effect on crop, g (Brassica campestris L.) [14, 21]: 5 (Herbicidal ratio of 90% or more (almost completely withered)); effect on crop, f (Beta vulgaris ssp. vulgaris) [15, 21]: 5 (Herbicidal ratio of 90% or more (almost completely withered)); effect on crop, d (directly sowed Oryza sativa) [17, 21]: 4 (Herbicidal ratio of 70% or more and less than 90%); effect on crop, c (Glycine max) [18, 21]: 0 (Herbicidal ratio of 5% or less (almost no effect))
